Where two headings read alike, the source gives them in different places.
Key:
SARS-CoV-2 [1] = conditions: irradiation with a wave length of λ = 662 nm; cited from earlier work
[2] = system: bovine coronavirus (BCoV); format: cell-based, Beta-coronavirus 1; conditions: with irradiation, MDBK cells
BCoV = system: BCoV; design: method as in ref 48 = [48]; conditions: independently of light; cited from earlier work
SARS-CoV-2 [3] = conditions: 1% MB, cited from earlier work
[4] = system: bovine coronavirus (BCoV) strain S379 Riems; format: cell-based, Beta-coronavirus 1; conditions: for EC100 (100% Viable Cells): BCoV MOI = 1, with irradiation
MDBK cells [5] = test: cells; conditions: Bos taurus
vaccinia viruses = conditions: 30 µM of MB + PDI; not virus antigenicity; cited from earlier work
[6] = system: bovine coronavirus (BCoV); format: cell-based, Beta-coronavirus 1
MDBK cells [7] = conditions: for IC50: no BCoV
[8] = system: human adenovirus type 5 (HAdV5); design: method as in ref 16 = [16]; conditions: combined virucidal and irradiation effects; cited from earlier work
SARS-CoV-2 [9] = system: SARS-CoV-2; design: method as in ref 19 = [19]; conditions: in combination with far red light irradiation; cited from earlier work
[10] = system: avian H5N8 influenza virus; conditions: cited from earlier work

## CN(C)c1ccc2nc3ccc(=[N+](C)C)cc-3sc2c1 [MB, Methylene blue]
SARS-CoV-2 [1]
  protection of Vero E6 cells from infection: fully protected
[2]
  concentrations up to which permissive cells were observed: up to 0.075 µM
BCoV
  concentration at which light-independent antiviral activity was observed: ≥ 1 µM
SARS-CoV-2 [3]; gargling or spraying in the nasal cavity, early stages of the infection
  SARS-CoV-2 virus load: sufficient reduction of the SARS-CoV-2 virus load
SARS-CoV-2 [3]; local application, even in patients with co-morbidities
  adverse effects: lack of adverse effects
[4]; MDBK cells, MTT
  EC100 (100% Viable Cells): 0.15 µM
[4]; without irradiation, highest tested concentration 0.3 µM, Figure 7a
  "dark" antiviral activity towards BCoV: not enough to achieve “dark” antiviral activity
MDBK cells [5]; 24 h
  IC50: 2.54 µM
MDBK cells [5]; 48 h
  IC50: 1.28 µM
MDBK cells [5]; 72 h
  IC50: 1.8 µM
MDBK cells [5]; read-out: IC50, range over the incubation periods
  IC50: 1.28 to 2.54 µM
Vaccinia viruses
  effect on virus infectivity: loss of virus infectivity

## Cc1cc2nc3ccc(N(C)C)cc3[s+]c2cc1N.[Cl-] [TBO, toluidine blue O]
[2]
  concentrations up to which permissive cells were observed: up to 0.01 µM
[6]
  decrease in the number of viral cDNA: ~ 6 log/mL
[6]; TBO 0.02 µM
  Δlog cDNA/mL vs. Virus Control: 1.08 × 10^3
[6]; TBO 0.30 µM
  Δlog cDNA/mL vs. Virus Control: 5.91 × 10^6
[4]
  fold higher SI of TBO than MB: 1.7 fold
[4]; 50% BCoV inactivation, with irradiation
  fold lower EC50 (fold more active) of TBO than MB: 3.6 fold
[4]; BCoV MOI = 1, irradiation 54 J/cm^2 (680 nm) for MB, 99 J/cm^2 (635 nm) for TBO, MDBK cells, MTT, read-out: EC50 (50% Viable Cells)
  EC50: 0.005 µM
[4]; MDBK cells, MTT
  EC100 (100% Viable Cells): 0.02 µM
[4]; IC50 in MDBK cells / EC50 for direct BCoV inactivation with irradiation
  SI (IC50/EC50): 170
[4]; irradiation 680 nm and 54 J/cm^2 for MB, 635 nm and 99 J/cm^2 for TBO, Figure 7
  concentration resulting in strong inactivation of BCoV: ≥ 0.02 µM
[4]; with irradiation
  fold more effective than MB, based on the active concentrations: 25 fold
[4]; without irradiation, 0.25 µM, Figure 7b
  viable cells: 80%
[4]; without irradiation, concentration increased above 0.25 µM, Figure 7b
  decrease of the fraction of viable cells (cytotoxic): approximately 50%
MDBK cells [7]; 24 h incubation
  MNC (maximal nontoxic concentration): 0.66 µM
  IC50: 0.97 µM
MDBK cells [7]; 48 h incubation
  MNC (maximal nontoxic concentration): 0.35 µM
  IC50: 0.52 µM
MDBK cells [7]; 72 h incubation
  MNC (maximal nontoxic concentration): 0.59 µM
  IC50: 0.85 µM
MDBK cells [7]; 72 h of incubation
  fold lower IC50 of TBO than MB: 2.12 fold

## octa-methylpyridyloxy-substituted Ga phthalocyanine [Ga8]
[8]
  PDI potential on naked viruses, especially on HAdV5: remarkable PDI potential

## octakis (cholinyl) zinc phthalocyanine [Zn-PcChol8+]
SARS-CoV-2 [9]
  infectivity of SARS-CoV-2: completely destroyed the infectivity
[10]
  sensitivity of the virus to PDI: sensitive to PDI

## tetra-methylpyridyloxy-substituted Ga phthalocyanine [Ga4]
[8]
  PDI potential on naked viruses, especially on HAdV5: remarkable PDI potential
